From patent US7482321B2, “Extended glucagon-like peptide-1 analogs” (Eli Lilly and Company, priority 2002, dated 2009)
“And” between values parts separate entries of the source, which are not always exact repeats. Identical values can stand only once. Like-named read-outs stand apart in the source and are kept apart here. Marks after values point to notes of the source that are not given here. Ends that are not written are not given here.

Assays:
[1] = Pharmacokinetics after single intravenous dose in rats; conditions: single i.v. 10 μg/kg; for level at 5 min / level at 0.25 h / level at 0.5 h / level at 1 h / level at 2 h: Sprague Dawley, plasma, Plasma Concentration; for level at 1 h: 60 min; for AUC0-last / Cl / Cmax / Vss / t½ / AUC(0-t) / clearance / Vd / half-life: Sprague Dawley rats; for AUC(0-t): AUC0-last; for clearance: Cl; for Vd: Vss; for half-life: t½
Description: Pharmacokinetic parameters were determined for the following 5 different extended GLP-1 peptides:
Parameters were determined following a single intravenous dose of 10 μg/kg in four different rats.

[2] = Dog hyperglycemic clamp study, GLP-1 peptide concentration; parameters: species or system dogs; conditions: in vivo, iv
Description: Several different extended and non-extended GLP-1 peptides were tested for activity in a hyperglycemic clamp study in dogs. Glucose was infused for 200 minutes to maintain constant levels. For the first 80 minutes dogs were infused intravenously with vehicle to establish a baseline insulin concentration. For the next 60 minutes, GLP-1 peptides were administered at a rate of 1 pmol/kg/min. For the final 60 minutes the infusion rate of each GLP-1 compound was increased to 3 pmol/kg/min. Blood samples were taken periodically for the determination of insulin and GLP-1 peptide concentrations. Insulin change values were calculated as the difference between the value at time t and the average value during the last 20 minutes of the control period (60-80) minutes and are presented in Table 3. Areas under the insulin change curves were calculated using the trapezoidal rule over the last 30 minutes of each infusion period. Values listed are the means±standard error of the mean (SEM).

[3] = rat, iv, 10 ug/kg, 5 min, Mean of 4 rats
[4] = rat, iv, 10 ug/kg, 5 min, individual rats
[5] = rat, iv, 10 ug/kg, 15 min, Mean of 4 rats
[6] = rat, iv, 10 ug/kg, 15 min, individual rats
[7] = rat, iv, 10 ug/kg, 30 min, Mean of 4 rats
[8] = rat, iv, 10 ug/kg, 30 min, individual rats
[9] = rat, iv, 10 ug/kg, Mean of 4 rats (values below LLOQ taken as zero)
[10] = rat, iv, 10 ug/kg, individual rats
[11] = rat, iv, 10 ug/kg, 120 min, individual rats
[12] = rat, in vivo, iv, 10 ug/kg, Mean of 4 rats
[13] = rat, in vivo, iv, 10 ug/kg, individual rats
[14] = rat, in vivo, iv, 10 ug/kg, Cmax, Mean of 4 rats
[15] = rat, in vivo, iv, 10 ug/kg, Cmax, individual rats
[16] = infusion rate 1 pmol/kg/min i.v., dog hyperglycemic clamp, after 60 minutes of infusion, mean ± SEM, read-out: Compound Concentration (t = 60′)
[17] = infusion rate 3 pmol/kg/min i.v., dog hyperglycemic clamp, after 60 minutes of infusion, mean ± SEM, read-out: Compound Concentration (t = 60′)

| Compound | Plasma Concentration ([1]; 120 min, individual rats) | level at 5 min [1, 3] | level at 5 min [1, 4] | level at 0.25 h [1, 5] | level at 0.5 h [1, 7] | level at 1 h [1, 9] | AUC0-last ([1]; individual rats) | Cl ([1]; individual rats) | Cmax ([1]; individual rats) | Vss ([1]; individual rats) | t½ ([1]; individual rats) | AUC(0-t) [1, 12] | AUC(0-t) [1, 13] | clearance [1, 12] | clearance [1, 13] | Cmax [1, 14] | Vd [1, 12] | half-life [1, 12] | level at time molar at 1 h ([2]; dog, 1 pmol/kg/min) | level at time molar at 1 h ([2]; dog, 3 pmol/kg/min) | also measured |
| --- | --- | --- | --- | --- | --- | --- | --- | --- | --- | --- | --- | --- | --- | --- | --- | --- | --- | --- | --- | --- | --- |
| CC[C@H](C)[C@H](NC(=O)[C@H](Cc1ccccc1)NC(=O)[C@H](CCC(=O)O)NC(=O)[C@H](CCCCN)NC(=O)[C@H](C)NC(=O)[C@H](C)NC(=O)[C@H](CCC(N)=O)NC(=O)CNC(=O)[C@H](CCC(=O)O)NC(=O)[C@H](CC(C)C)NC(=O)[C@H](Cc1ccc(O)cc1)NC(=O)[C@H](CO)NC(=O)[C@H](CO)NC(=O)[C@@H](NC(=O)[C@H](CC(=O)O)NC(=O)[C@H](CO)NC(=O)[C@@H](NC(=O)[C@H](Cc1ccccc1)NC(=O)[C@@H](NC(=O)CNC(=O)[C@H](CCC(=O)O)NC(=O)[C@@H](NC(=O)[C@@H](N)Cc1c[nH]cn1)C(C)C)[C@@H](C)O)[C@@H](C)O)C(C)C)C(=O)N[C@@H](C)C(=O)N[C@@H](Cc1c[nH]c2ccccc12)C(=O)N[C@@H](CC(C)C)C(=O)N[C@H](C(=O)N[C@@H](CCCCN)C(=O)NCC(=O)N[C@@H](CCCNC(=N)N)C(=O)NCC(=O)N[C@@H](CO)C(=O)N[C@@H](CO)C(=O)NCC(=O)N[C@@H](C)C(=O)N1CCC[C@H]1C(=O)N1CCC[C@H]1C(=O)N1CCC[C@H]1C(=O)N[C@@H](CO)C(=O)O)C(C)C [Compound 4] | <150 ^a pg/mL | 23.6 ng/mL | 25.4 ng/mL | 9.86 ng/mL | 3.18 ng/mL | 0.636 ng/mL | 486.7 ng·min/mL and 424.9 ng·min/mL and 461.5 ng·min/mL | 20.5 mL/min/kg and 23.5 mL/min/kg and 21.7 mL/min/kg | 24.9 ng/mL and 20.0 ng/mL and 24.0 ng/mL | 0.2511 L/kg and 0.3159 L/kg and 0.2492 L/kg | 11.9 min and 11.2 min and 11.0 min | 8.05 ng·h/mL | 9.33 ng·h/mL | 20.9 mL/min/kg | 17.9 mL/min/kg | 23.6 ng/mL | 0.269 L/kg | 11.5 min |  |  | Plasma Concentration ([1]; 5 min, individual rats): 24853 pg/mL; level at 0.25 h [1, 6]: 12.1 ng/mL; level at 0.5 h [1, 8]: 4.37 ng/mL; level at 1 h [1, 10]: 0.869 ng/mL; level at 2 h [1, 11]: < 0.15 ng/mL; Cmax [1, 15]: 25.4 ng/mL; Vd [1, 13]: 0.259 L/kg; half-life [1, 13]: 12 min |
| HVEGTFTSDVSSYLEEQAAKEFIAWLIKGGPSSGAPPPS [SEQ ID NO:55] |  |  |  |  |  |  |  |  |  |  |  |  |  |  |  |  |  |  | 0.246 ± 0.017 nM | 0.766 ± 0.046 nM |  |
| HVEGTFTSDVSSYLEEQAAKEFIAWLIKGGPSSGDPPPS [Compound 2] | <150 ^a pg/mL | 17.3 ng/mL |  | 6.82 ng/mL | 2.95 ng/mL | 1.05 ng/mL | 312.2 ng·min/mL and 430.0 ng·min/mL and 409.1 ng·min/mL | 32.0 mL/min/kg and 23.3 mL/min/kg and 24.4 mL/min/kg | 9.8 ng/mL and 16.9 ng/mL and 21.4 ng/mL and 21.1 ng/mL | 0.9739 L/kg and 0.3557 L/kg and 0.2833 L/kg and 0.3134 L/kg | 35.8 min and 12.3 min and 10.6 min and 14.4 min | 6.93 ng·h/mL | 8.55 ng·h/mL | 24.8 mL/min/kg | 19.5 mL/min/kg | 17.3 ng/mL | 0.482 L/kg | 18.3 min |  |  | level at time molar at 1 h [2, 16]: 0.204 ± 0.024 nM; level at time molar at 1 h [2, 17]: 0.755 ± 0.072 nM |
| HVEGTFTSDVSSYLEEQAAKEFIAWLIKGGPSSGDPPPS-NH2 [Compound 1] | <150 ^a pg/mL | 23.5 ng/mL | 24.6 ng/mL | 9.61 ng/mL | 3.1 ng/mL | 0.554 ng/mL | 478.8 ng·min/mL and 448.5 ng·min/mL and 469.4 ng·min/mL | 20.9 mL/min/kg and 22.3 mL/min/kg and 21.3 mL/min/kg | 24.1 ng/mL and 22.8 ng/mL and 22.4 ng/mL | 0.2463 L/kg and 0.2657 L/kg and 0.2704 L/kg | 10.1 min and 10.9 min | 7.92 ng·h/mL | 8.41 ng·h/mL | 21.1 mL/min/kg | 19.8 mL/min/kg | 23.5 ng/mL | 0.264 L/kg | 11 min |  |  | Plasma Concentration ([1]; 30 min, individual rats): 3119 pg/mL; level at 0.25 h [1, 6]: 10 ng/mL; level at 0.5 h [1, 8]: 3.12 ng/mL; level at 2 h [1, 11]: < 0.15 ng/mL; Cmax [1, 15]: 24.6 ng/mL; Vd [1, 13]: 0.273 L/kg; half-life [1, 13]: 13.1 min; level at time molar at 1 h [2, 16]: 0.268 ± 0.045 nM; level at time molar at 1 h [2, 17]: 0.977 ± 0.135 nM |
| HVEGTFTSDVSSYLEEQAAKEFIAWLVKGRGSSGAPPPS [Compound 3] | <150 ^a pg/mL | 23.2 ng/mL | 23.6 ng/mL | 8.81 ng/mL | 3.44 ng/mL | 0.657 ng/mL | 465.6 ng·min/mL and 492.5 ng·min/mL and 409.1 ng·min/mL | 21.5 mL/min/kg and 20.3 mL/min/kg and 24.4 mL/min/kg | 22.7 ng/mL and 24.3 ng/mL and 21.1 ng/mL | 0.2805 L/kg and 0.2624 L/kg and 0.3134 L/kg | 11.7 min and 12.0 min and 14.4 min | 7.96 ng·h/mL | 7.78 ng·h/mL | 21 mL/min/kg | 21.4 mL/min/kg | 23.3 ng/mL | 0.277 L/kg | 12.1 min |  |  | Plasma Concentration ([1]; 15 min, individual rats): 8467 pg/mL; level at 0.25 h [1, 6]: 8.6 ng/mL; level at 0.5 h [1, 8]: 3 ng/mL; level at 1 h [1, 10]: 0.566 ng/mL; level at 2 h [1, 11]: < 0.15 ng/mL; Cmax [1, 15]: 23.6 ng/mL; Vd [1, 13]: 0.263 L/kg; half-life [1, 13]: 11.6 min |
| HVEGTFTSDVSSYLEEQAVKEFIAWLIKGGPSSGAPPPRG [SEQ ID NO:48] |  |  |  |  |  |  |  |  |  |  |  |  |  |  |  |  |  |  | 0.227 ± 0.04 nM | 1.09 ± 0.106 nM |  |
| HVEGTFTSDVSSYLEEQAVKEFIAWLIKGGPSSGAPPPS [SEQ ID NO:42] |  |  |  |  |  |  |  |  |  |  |  |  |  |  |  |  |  |  | 0.276 ± 0.036 nM | 1.11 ± 0.139 nM |  |
| HVEGTFTSDVSSYLEEQAVKEFIAWLIKGGPSSGAPPPS-NH2 [SEQ ID NO:13] |  |  |  |  |  |  |  |  |  |  |  |  |  |  |  |  |  |  | 0.366 ± 0.059 nM | 1.32 ± 0.211 nM |  |
| HVEGTFTSDVSSYLEEQAVKEFIAWLIKGGPSSGAPPPSH [SEQ ID NO:43] |  |  |  |  |  |  |  |  |  |  |  |  |  |  |  |  |  |  | 0.306 ± 0.02 nM | 1.06 ± 0.034 nM |  |
| HVEGTFTSDVSSYLEEQAVKEFIAWLIKGRGSSGAPPPS [SEQ ID NO:35] |  |  |  |  |  |  |  |  |  |  |  |  |  |  |  |  |  |  | 0.267 ± 0.031 nM | 1.04 ± 0.103 nM |  |
